Details in all cases: Compound concentration 10 µM
In assay [1] the target is T1, Alpha-1A adrenergic receptor (Homo sapiens) (UniProt P35348).
T1 sequence (whole entry): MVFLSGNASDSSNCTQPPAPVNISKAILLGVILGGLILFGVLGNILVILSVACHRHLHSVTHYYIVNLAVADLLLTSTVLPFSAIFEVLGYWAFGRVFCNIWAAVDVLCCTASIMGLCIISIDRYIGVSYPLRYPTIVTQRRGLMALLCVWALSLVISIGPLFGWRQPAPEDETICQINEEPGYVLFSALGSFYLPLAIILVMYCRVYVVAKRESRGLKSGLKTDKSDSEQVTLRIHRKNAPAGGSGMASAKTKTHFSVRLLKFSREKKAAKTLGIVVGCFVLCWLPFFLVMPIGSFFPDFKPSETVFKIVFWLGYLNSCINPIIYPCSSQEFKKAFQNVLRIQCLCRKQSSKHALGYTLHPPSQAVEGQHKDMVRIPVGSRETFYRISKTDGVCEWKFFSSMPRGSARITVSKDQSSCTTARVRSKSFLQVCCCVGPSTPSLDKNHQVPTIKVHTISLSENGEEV
Description: PDSP Primary Binding target: ADRA1A - Compounds are tested at 10 uM concentration, plate are incubated at room temperature in the dark for 90 minutes. Reaction are stopped by vacuum filtration onto 0.3% polyethyleneimine soaked filter mats using Filtermate harvester. Scintilation cocktail is then melted onto microwave-dried filters on a hot plate and the radio activity is counted in Microbia counter.

The target of assay [2] is T2, Alpha-1D adrenergic receptor (Homo sapiens) (UniProt P25100).
T2 sequence (whole entry): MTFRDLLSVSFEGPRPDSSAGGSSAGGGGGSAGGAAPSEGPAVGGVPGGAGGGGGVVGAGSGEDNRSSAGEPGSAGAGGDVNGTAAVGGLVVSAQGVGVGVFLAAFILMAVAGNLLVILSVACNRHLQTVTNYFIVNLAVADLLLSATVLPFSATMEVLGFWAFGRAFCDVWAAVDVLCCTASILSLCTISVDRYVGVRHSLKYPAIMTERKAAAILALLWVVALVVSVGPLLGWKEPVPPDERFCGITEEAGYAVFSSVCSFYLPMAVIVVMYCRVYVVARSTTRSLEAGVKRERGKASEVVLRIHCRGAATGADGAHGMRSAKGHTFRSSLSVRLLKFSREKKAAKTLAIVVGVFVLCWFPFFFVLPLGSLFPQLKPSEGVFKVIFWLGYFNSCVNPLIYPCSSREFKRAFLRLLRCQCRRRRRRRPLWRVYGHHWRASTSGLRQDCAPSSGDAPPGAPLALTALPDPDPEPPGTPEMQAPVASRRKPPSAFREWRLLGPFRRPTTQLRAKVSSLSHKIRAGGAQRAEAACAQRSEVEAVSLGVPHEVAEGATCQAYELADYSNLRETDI
Description: PDSP Primary Binding target: ADRA1D - Compounds are tested at 10 uM concentration, plate are incubated at room temperature in the dark for 90 minutes. Reaction are stopped by vacuum filtration onto 0.3% polyethyleneimine soaked filter mats using Filtermate harvester. Scintilation cocktail is then melted onto microwave-dried filters on a hot plate and the radio activity is counted in Microbia counter.

The target in assay [3] is Histamine H1 receptor (Homo sapiens) (UniProt P35367).
Chain of Histamine H1 receptor (Homo sapiens) (P35367 whole entry): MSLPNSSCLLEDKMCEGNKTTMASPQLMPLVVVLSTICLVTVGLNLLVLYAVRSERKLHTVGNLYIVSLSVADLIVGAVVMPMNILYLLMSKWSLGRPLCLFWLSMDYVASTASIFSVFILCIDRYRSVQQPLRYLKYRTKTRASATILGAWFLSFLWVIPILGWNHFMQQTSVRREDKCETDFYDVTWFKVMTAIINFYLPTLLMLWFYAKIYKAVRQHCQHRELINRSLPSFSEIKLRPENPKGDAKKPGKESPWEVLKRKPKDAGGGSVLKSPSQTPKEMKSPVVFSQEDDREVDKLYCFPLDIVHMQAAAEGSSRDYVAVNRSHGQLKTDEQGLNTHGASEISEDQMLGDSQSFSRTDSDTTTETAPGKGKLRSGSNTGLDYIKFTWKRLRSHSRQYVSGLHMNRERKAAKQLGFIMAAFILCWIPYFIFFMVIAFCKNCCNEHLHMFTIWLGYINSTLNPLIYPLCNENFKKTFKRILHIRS
Description: PDSP Primary Binding target: HRH1 - Compounds are tested at 10 uM concentration, plate are incubated at room temperature in the dark for 90 minutes. Reaction are stopped by vacuum filtration onto 0.3% polyethyleneimine soaked filter mats using Filtermate harvester. Scintilation cocktail is then melted onto microwave-dried filters on a hot plate and the radio activity is counted in Microbia counter.
The target in assay [4] is Delta-type opioid receptor (Homo sapiens) (UniProt P41143).
Chain of Delta-type opioid receptor (Homo sapiens) (P41143 whole entry): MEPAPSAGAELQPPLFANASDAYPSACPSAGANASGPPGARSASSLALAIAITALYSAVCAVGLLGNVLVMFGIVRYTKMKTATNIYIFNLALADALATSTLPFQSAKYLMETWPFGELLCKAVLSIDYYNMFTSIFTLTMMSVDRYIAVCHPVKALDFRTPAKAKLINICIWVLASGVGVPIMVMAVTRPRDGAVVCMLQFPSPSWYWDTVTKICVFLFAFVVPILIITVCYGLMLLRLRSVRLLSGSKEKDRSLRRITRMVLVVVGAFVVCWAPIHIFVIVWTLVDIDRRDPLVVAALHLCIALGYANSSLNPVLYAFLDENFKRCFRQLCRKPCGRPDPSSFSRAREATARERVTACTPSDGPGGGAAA
Description: PDSP Primary Binding target: OPRD1 - Compounds are tested at 10 uM concentration, plate are incubated at room temperature in the dark for 90 minutes. Reaction are stopped by vacuum filtration onto 0.3% polyethyleneimine soaked filter mats using Filtermate harvester. Scintilation cocktail is then melted onto microwave-dried filters on a hot plate and the radio activity is counted in Microbia counter.
Assay [5] has as its target 5-hydroxytryptamine receptor 5A (Homo sapiens) (UniProt P47898).
Description: PDSP Primary Binding target: HTR5A - Compounds are tested at 10 uM concentration, plate are incubated at room temperature in the dark for 90 minutes. Reaction are stopped by vacuum filtration onto 0.3% polyethyleneimine soaked filter mats using Filtermate harvester. Scintilation cocktail is then melted onto microwave-dried filters on a hot plate and the radio activity is counted in Microbia counter.
Assay [6] addresses T3, Muscarinic acetylcholine receptor M4 (Homo sapiens) (UniProt P08173).
T3 sequence (whole entry): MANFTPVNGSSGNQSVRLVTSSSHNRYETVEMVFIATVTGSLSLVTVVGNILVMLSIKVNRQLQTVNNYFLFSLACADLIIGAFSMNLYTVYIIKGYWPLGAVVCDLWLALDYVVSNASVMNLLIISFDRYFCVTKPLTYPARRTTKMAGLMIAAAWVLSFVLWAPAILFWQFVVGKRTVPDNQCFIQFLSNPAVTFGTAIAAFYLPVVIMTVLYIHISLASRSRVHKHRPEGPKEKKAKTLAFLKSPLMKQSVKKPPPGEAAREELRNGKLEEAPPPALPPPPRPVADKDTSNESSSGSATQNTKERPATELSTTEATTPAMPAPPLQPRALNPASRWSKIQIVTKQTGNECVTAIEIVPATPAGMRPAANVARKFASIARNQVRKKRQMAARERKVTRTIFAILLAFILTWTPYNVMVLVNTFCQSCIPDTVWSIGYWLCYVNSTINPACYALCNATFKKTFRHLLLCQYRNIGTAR
Description: PDSP Primary Binding target: CHRM4 - Compounds are tested at 10 uM concentration, plate are incubated at room temperature in the dark for 90 minutes. Reaction are stopped by vacuum filtration onto 0.3% polyethyleneimine soaked filter mats using Filtermate harvester. Scintilation cocktail is then melted onto microwave-dried filters on a hot plate and the radio activity is counted in Microbia counter.

In assay [7] the target is T4, Alpha-1B adrenergic receptor (Homo sapiens) (UniProt P35368).
T4 sequence (whole entry): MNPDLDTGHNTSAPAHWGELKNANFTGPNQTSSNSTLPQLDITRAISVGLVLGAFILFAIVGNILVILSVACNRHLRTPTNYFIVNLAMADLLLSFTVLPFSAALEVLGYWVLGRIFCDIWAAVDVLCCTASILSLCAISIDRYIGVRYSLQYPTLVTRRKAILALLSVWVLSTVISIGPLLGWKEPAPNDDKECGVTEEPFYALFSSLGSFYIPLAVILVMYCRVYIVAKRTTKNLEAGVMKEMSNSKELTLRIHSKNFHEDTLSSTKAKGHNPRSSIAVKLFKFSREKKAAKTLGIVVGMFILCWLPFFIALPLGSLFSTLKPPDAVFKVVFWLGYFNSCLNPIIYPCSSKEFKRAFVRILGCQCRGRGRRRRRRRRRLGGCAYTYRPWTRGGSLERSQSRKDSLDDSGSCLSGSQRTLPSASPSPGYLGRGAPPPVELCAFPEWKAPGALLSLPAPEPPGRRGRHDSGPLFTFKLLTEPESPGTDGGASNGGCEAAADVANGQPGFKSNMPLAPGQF
Description: PDSP Primary Binding target: ADRA1B - Compounds are tested at 10 uM concentration, plate are incubated at room temperature in the dark for 90 minutes. Reaction are stopped by vacuum filtration onto 0.3% polyethyleneimine soaked filter mats using Filtermate harvester. Scintilation cocktail is then melted onto microwave-dried filters on a hot plate and the radio activity is counted in Microbia counter.

Chain of 5-hydroxytryptamine receptor 5A (Homo sapiens) (P47898 whole entry): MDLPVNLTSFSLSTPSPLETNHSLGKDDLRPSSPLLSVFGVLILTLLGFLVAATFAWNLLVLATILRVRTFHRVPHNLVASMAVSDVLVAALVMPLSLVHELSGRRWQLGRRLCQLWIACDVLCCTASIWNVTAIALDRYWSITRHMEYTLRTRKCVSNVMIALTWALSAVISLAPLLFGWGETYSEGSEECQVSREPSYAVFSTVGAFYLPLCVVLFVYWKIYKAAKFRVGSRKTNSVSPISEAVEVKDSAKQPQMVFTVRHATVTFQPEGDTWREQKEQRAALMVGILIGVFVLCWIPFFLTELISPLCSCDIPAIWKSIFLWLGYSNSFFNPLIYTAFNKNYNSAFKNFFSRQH

For `CN(C(=O)Cc1ccc(Cl)c(Cl)c1)C(CN1CCCC1)c1cccc(OCC(=O)O)c1` (stereo unspecified), the inhibition in assay [1] is -0.83%; in assay [2], 5.15%; in assay [3], 47.4%; in assay [4], 71.9%; in assay [5] it was 1.89%.

Take `C/C(=N\NC(=O)[C@@H]1C(=O)NC[C@H]1c1ccccc1)c1cccc(Br)c1`: the inhibition was 4.55% in assay [1], -1.53% in assay [2], 58.5% in assay [3] and 18.8% in assay [5].

Consider `C[C@H](CO)Nc1nc(SCc2cccc(Cl)c2F)nc2[nH]c(=O)sc12`, for which the inhibition is -7.6% in assay [1]; -0.1% in assay [6]; 3.03% in assay [7]; 19% in assay [3]; 7.09% in assay [5].

As for `COc1cc2c(CCNC(C)=O)c[nH]c2cc1Cl`, the inhibition in assay [1] was 1.85%; in assay [2], 6.2%; in assay [3] it was 3.86%; in assay [4], -3.58%.

Consider `Cc1cccc(NC(=O)N[C@@H]2N=C(c3ccccc3)c3ccccc3N(C)C2=O)c1`, for which the inhibition in assay [1] is -7.27%; in assay [6], -5.23%; in assay [3], 12.5%; in assay [4], 8.95%.

With `S=C(NCCCc1c[nH]cn1)NCCCN(Cc1ccc(Cl)c(Cl)c1)c1ccc(Br)cn1`, the inhibition was 84.5% in assay [1]; 89.3% in assay [7]; 65.9% in assay [2]; 83% in assay [3]; 27% in assay [4]; 96.7% in assay [5].

Take `CCCCN(CC)c1nc(C)nc2c1c(C)cn2-c1c(C)cc(C)cc1C`: the inhibition was 18.2% in assay [1]; 14.4% in assay [7]; 16.5% in assay [2]; 12.4% in assay [3]; 7.66% in assay [4].

For the compound `C=CCN1C[C@H](C)N([C@H](c2ccc(C(=O)N(CC)CC)cc2)c2cccc(O)c2)C[C@H]1C`, the inhibition is 16.8% in assay [1]; -5.52% in assay [6]; 10.2% in assay [7]; 8.35% in assay [3]; 99.9% in assay [4].

Regarding `CCCCN(CCCC)C(=O)CN1C[C@@H](c2ccc3c(c2)OCO3)[C@H](C(=O)O)[C@H]1c1ccc(OC)cc1`, the inhibition was 11.4% in assay [1]; 7.9% in assay [6]; -5.54% in assay [7]; 3.82% in assay [3]; -0.59% in assay [4].

Consider `COc1ccc(S(=O)(=O)c2cc(OC)ccc2S(=O)(=O)c2ccc([C@H](C)NS(C)(=O)=O)cc2)cc1`, for which the inhibition was 22.6% in assay [1]; -3.37% in assay [6]; -4.35% in assay [7]; -5.89% in assay [3]; 6.79% in assay [5].

With `COc1ccc(C2(O)OC(=O)C(c3ccc4c(c3)OCO4)=C2Cc2cc(OC)c(OC)c(OC)c2)cc1` (stereo unspecified), the inhibition in assay [1] is 3.1%; in assay [6], 1.32%; in assay [7] it was -4.11%; in assay [2] it was 11%; in assay [3], 11.8%; in assay [5], 4.51%.

As to `Cc1cc(C)cc(C(=O)N(C)[C@H](Cc2ccc(-c3ccccc3)cc2)C(=O)N[C@@H](Cc2c[nH]c3ccccc23)C(=O)O)c1`, the inhibition in assay [1] was 22.3%; in assay [6], 1%; in assay [7], 1.27%; in assay [2] it was 7.51%; in assay [3] it was 15.5%.

As for `Nc1nc(NCCc2ccc(O)cc2)nc2nc(-c3ccco3)nn12`, the inhibition in assay [1] is -6.79%; in assay [7] it was 2.08%; in assay [2], 8.13%; in assay [4], 2.38%.

In the case of `CCCn1c(=O)c2[nH]c(-c3cnn(Cc4cccc(C(F)(F)F)c4)c3)nc2n(CC)c1=O`, the inhibition in assay [1] was -4.72%; in assay [7], -5.87%; in assay [3], -0.63%; in assay [4], -6.13%.

On to `COc1ccccc1CN[C@H]1C2CCN(CC2)[C@H]1C(c1ccccc1)c1ccccc1`, for which the inhibition is -7.95% in assay [1]; -4.3% in assay [6]; 1.04% in assay [7]; 11.1% in assay [2]; 40.4% in assay [3]; 19.7% in assay [5].

With `O=C(c1cc2c(cc1F)OC(c1ccc(F)cc1)(c1ccc(Cl)cc1Cl)O2)N1CCOCC1` (stereo unspecified), the inhibition was 14.6% in assay [1]; 3.46% in assay [2]; 15.4% in assay [3]; 24.5% in assay [4]; -2.04% in assay [5].

`CCc1cc2c(c(CC)n1)CCC(=O)N2Cc1ccc(-c2ccccc2-c2nnn[nH]2)cc1`: the inhibition is 18.5% in assay [1]; -4.36% in assay [6]; 25.9% in assay [7]; 8.58% in assay [3]; -4.8% in assay [5].

Consider `CC(C)(C)NC[C@H](O)COc1nsnc1N1CCOCC1`, for which the inhibition in assay [1] was 2.77%; in assay [6] it was -8.25%; in assay [7], -6.31%; in assay [2] it was 8.6%.

As for `N=C(N)SCCc1c[nH]cn1`, the inhibition in assay [1] is -6.16%; in assay [7] it was -9.87%; in assay [2] it was 8.64%; in assay [3], 6.96%; in assay [4], -6.86%; in assay [5] it was -5.14%.

Turning to `Cc1cccc([C@H](C)c2c[nH]cn2)c1C`, the inhibition in assay [1] was 63%; in assay [7], 54.8%; in assay [2], 42.8%; in assay [4] it was -4.15%; in assay [5] it was -0.76%.

With `Nc1nc2c(c(N3CCNCC3)n1)CCC1=C2[C@@H]2CCCC[C@@H]2O1`, the inhibition in assay [1] was -7.78%; in assay [6] it was -0.51%; in assay [7], -8.32%; in assay [3], 55%; in assay [5], -4.34%.

In the case of `CC(C)C[C@H](NC(=O)N1CCCCCC1)C(=O)N[C@H](Cc1cn(C)c2ccccc12)C(=O)N[C@H](Cc1ccccn1)C(=O)O`, the inhibition was 14.1% in assay [1], 0.19% in assay [6], 10.1% in assay [7] and 5.31% in assay [3].

As for `CSc1ccc(C(=O)N[C@@H]2CCCC[C@@H]2NC(=O)CNC(=O)c2cc(C(F)(F)F)ccc2NC(=O)NC(C)C)cc1`, the inhibition in assay [1] is 7.53%; in assay [6] it was 6.91%; in assay [7], -0.4%; in assay [3], 70.6%; in assay [4], 4.07%; in assay [5], 5.1%.

`CC(C)NCC(O)c1ccc(N)c(C#N)c1` (stereo unspecified): the inhibition in assay [1] is -0.15%; in assay [7], -5.56%; in assay [3], 34.1%.

As usually defined, the inhibition is the drop in the measured response relative to a control, in per cent.
